# Target: T1, FlK (fluoroacetyl-CoA thioesterase) (Streptantibioticus cattleyicolor, UniProt Q1EMV2)
# T1 sequence (Q1EMV2 1-139): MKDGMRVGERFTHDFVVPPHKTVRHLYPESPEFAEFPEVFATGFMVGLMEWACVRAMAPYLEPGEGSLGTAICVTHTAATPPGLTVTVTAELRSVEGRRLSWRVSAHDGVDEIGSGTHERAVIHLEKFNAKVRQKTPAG
# Test: pre-steady-state rapid chemical quench, HPLC of CoA release
# Type: biochemical
# Settings: Bis-Tris 100 mM pH 6.0; covalent acyl-enzyme on Glu 50
smiles,measurement,value
CC(C)(COP(=O)(O)OP(=O)(O)OC[C@H]1O[C@@H](n2cnc3c(N)ncnc32)[C@H](O)[C@@H]1OP(=O)(O)O)[C@@H](O)C(=O)NCCC(=O)NCCSC(=O)CF [fluoroacetyl-CoA],"pre-steady-state rapid chemical quench, HPLC of CoA release",we observed a burst phase of product formation consistent with enzyme acylation

# Reference: PMC3985765 (Biochemistry, 2014)
